Experimental data reported in ChEMBL document CHEMBL1201861, “Genomics of Drug Sensitity in Cancer screening data, Wellcome Trust Sanger Institute”.

System: NCI-H2170;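 further: cell viability assay measuring growth inhibition of human NCI-H2170 cancer cells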
Experiment: cells
Assay type: functional, cell-based
Settings: Homo sapiens
Description: SANGER: Inhibition of human NCI-H2170 cell growth in a cell viability assay.

Row | SMILES | IC50 [nM]
1 | C/C(=C\c1csc(C)n1)[C@@H]1C[C@@H]2O[C@]2(C)CCC[C@H](C)[C@H](O)[C@@H](C)C(=O)C(C)(C)[C@@H](O)CC(=O)O1 [PATUPILONE] | 5.22

System: PFSK-1;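 further: cell viability assay measuring how strongly compounds suppress growth of human PFSK-1 cells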
Experiment: cells
Assay type: functional, cell-based
Settings: Homo sapiens
Description: SANGER: Inhibition of human PFSK-1 cell growth in a cell viability assay.

Row | SMILES | IC50 [nM]
2 | C/C(=C\c1csc(C)n1)[C@@H]1C[C@@H]2O[C@]2(C)CCC[C@H](C)[C@H](O)[C@@H](C)C(=O)C(C)(C)[C@@H](O)CC(=O)O1 [PATUPILONE] | 13.3

System: LC4-1;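 further: growth inhibition of LC4-1 cells, read out with a cell viability assay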
Experiment: cells
Assay type: functional, cell-based, Homo sapiens
Settings: Homo sapiens, LC4-1
Description: SANGER: Inhibition of human LC4-1 cell growth in a cell viability assay.

Row | SMILES | IC50 [nM]
3 | C/C(=C\c1csc(C)n1)[C@@H]1C[C@@H]2O[C@]2(C)CCC[C@H](C)[C@H](O)[C@@H](C)C(=O)C(C)(C)[C@@H](O)CC(=O)O1 [PATUPILONE] | 12.8

System: CPC-N;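 further: growth inhibition of CPC-N cells, with a cell viability assay as the readout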
Experiment: cells
Assay type: functional, cell-based, Homo sapiens
Settings: Homo sapiens, CPC-N
Description: SANGER: Inhibition of human CPC-N cell growth in a cell viability assay.

Row | SMILES | IC50 [nM]
4 | C/C(=C\c1csc(C)n1)[C@@H]1C[C@@H]2O[C@]2(C)CCC[C@H](C)[C@H](O)[C@@H](C)C(=O)C(C)(C)[C@@H](O)CC(=O)O1 [PATUPILONE] | 10.7

System: NCI-H716;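 further: growth inhibition of human NCI-H716 cells, measured by a cell viability assay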
Experiment: cells
Assay type: functional, cell-based, Homo sapiens
Settings: Homo sapiens, NCI-H716
Description: SANGER: Inhibition of human NCI-H716 cell growth in a cell viability assay.

Row | SMILES | IC50 [nM]
5 | C/C(=C\c1csc(C)n1)[C@@H]1C[C@@H]2O[C@]2(C)CCC[C@H](C)[C@H](O)[C@@H](C)C(=O)C(C)(C)[C@@H](O)CC(=O)O1 [PATUPILONE] | > 32

System: BFTC-909
Experiment: cells
Assay type: functional, cell-based
Settings: Homo sapiens
Description: SANGER: Inhibition of human BFTC-909 cell growth in a cell viability assay.

Row | SMILES | IC50 [nM]
6 | C/C(=C\c1csc(C)n1)[C@@H]1C[C@@H]2O[C@]2(C)CCC[C@H](C)[C@H](O)[C@@H](C)C(=O)C(C)(C)[C@@H](O)CC(=O)O1 [PATUPILONE] | 1.56

System: A2058;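 further: reduction of A2058 cell growth, read out with a viability assay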
Experiment: cells
Assay type: functional, cell-based
Settings: Homo sapiens
Description: SANGER: Inhibition of human A2058 cell growth in a cell viability assay.

Row | SMILES | IC50 [nM]
7 | C/C(=C\c1csc(C)n1)[C@@H]1C[C@@H]2O[C@]2(C)CCC[C@H](C)[C@H](O)[C@@H](C)C(=O)C(C)(C)[C@@H](O)CC(=O)O1 [PATUPILONE] | 0.601

System: CESS
Experiment: SANGER: Inhibition of human CESS cell growth in a cell viability assay.
Assay type: functional, cell-based
Settings: Homo sapiens, CESS

Row | SMILES | IC50 [nM]
8 | C/C(=C\c1csc(C)n1)[C@@H]1C[C@@H]2O[C@]2(C)CCC[C@H](C)[C@H](O)[C@@H](C)C(=O)C(C)(C)[C@@H](O)CC(=O)O1 [PATUPILONE] | 3.38

System: HOP-92;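 further: cell viability readout, with IC50 reflecting inhibition of HOP-92 cell growth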
Experiment: cells
Assay type: functional, cell-based
Settings: Homo sapiens
Description: SANGER: Inhibition of human HOP-92 cell growth in a cell viability assay.

Row | SMILES | IC50 [nM]
9 | C/C(=C\c1csc(C)n1)[C@@H]1C[C@@H]2O[C@]2(C)CCC[C@H](C)[C@H](O)[C@@H](C)C(=O)C(C)(C)[C@@H](O)CC(=O)O1 [PATUPILONE] | > 32

System: HCC38;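 further: cell viability assay on the human HCC38 cell line, with IC50 marking the concentration that inhibits cell growth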
Experiment: cells
Assay type: functional, cell-based
Settings: Homo sapiens
Description: SANGER: Inhibition of human HCC38 cell growth in a cell viability assay.

Row | SMILES | IC50 [nM]
10 | C/C(=C\c1csc(C)n1)[C@@H]1C[C@@H]2O[C@]2(C)CCC[C@H](C)[C@H](O)[C@@H](C)C(=O)C(C)(C)[C@@H](O)CC(=O)O1 [PATUPILONE] | 3.83

System: TYK-nu;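 further: growth inhibition of human TYK-nu cells, read out by a cell viability assay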
Experiment: cells
Assay type: functional, cell-based
Settings: Homo sapiens
Description: SANGER: Inhibition of human TYK-nu cell growth in a cell viability assay.

Row | SMILES | IC50 [nM]
11 | C/C(=C\c1csc(C)n1)[C@@H]1C[C@@H]2O[C@]2(C)CCC[C@H](C)[C@H](O)[C@@H](C)C(=O)C(C)(C)[C@@H](O)CC(=O)O1 [PATUPILONE] | > 32

System: KARPAS-422
Experiment: cells
Assay type: functional, cell-based, Homo sapiens
Settings: Homo sapiens, KARPAS-422
Description: SANGER: Inhibition of human KARPAS-422 cell growth in a cell viability assay.

Row | SMILES | IC50 [nM]
12 | C/C(=C\c1csc(C)n1)[C@@H]1C[C@@H]2O[C@]2(C)CCC[C@H](C)[C@H](O)[C@@H](C)C(=O)C(C)(C)[C@@H](O)CC(=O)O1 [PATUPILONE] | 10.6

System: HCC70;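 further: cell viability assay measuring how strongly the compound suppresses proliferation of HCC70 cells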
Experiment: cells
Assay type: functional, cell-based
Settings: Homo sapiens
Description: SANGER: Inhibition of human HCC70 cell growth in a cell viability assay.

Row | SMILES | IC50 [nM]
13 | C/C(=C\c1csc(C)n1)[C@@H]1C[C@@H]2O[C@]2(C)CCC[C@H](C)[C@H](O)[C@@H](C)C(=O)C(C)(C)[C@@H](O)CC(=O)O1 [PATUPILONE] | 4.79

System: SW1417;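 further: growth inhibition of human SW1417 cells, read out with a cell viability assay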
Experiment: cells
Assay type: functional, cell-based
Settings: Homo sapiens
Description: SANGER: Inhibition of human SW1417 cell growth in a cell viability assay.

Row | SMILES | IC50 [nM]
14 | C/C(=C\c1csc(C)n1)[C@@H]1C[C@@H]2O[C@]2(C)CCC[C@H](C)[C@H](O)[C@@H](C)C(=O)C(C)(C)[C@@H](O)CC(=O)O1 [PATUPILONE] | > 32

System: RT-112
Experiment: cells
Assay type: functional, cell-based
Settings: Homo sapiens
Description: SANGER: Inhibition of human RT-112 cell growth in a cell viability assay.

Row | SMILES | IC50 [nM]
15 | C/C(=C\c1csc(C)n1)[C@@H]1C[C@@H]2O[C@]2(C)CCC[C@H](C)[C@H](O)[C@@H](C)C(=O)C(C)(C)[C@@H](O)CC(=O)O1 [PATUPILONE] | 0.614

System: T98G;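 further: growth inhibition of T98G cells, read out by a cell viability assay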
Experiment: cells
Assay type: functional, cell-based
Settings: Homo sapiens
Description: SANGER: Inhibition of human T98G cell growth in a cell viability assay.

Row | SMILES | IC50 [nM]
16 | C/C(=C\c1csc(C)n1)[C@@H]1C[C@@H]2O[C@]2(C)CCC[C@H](C)[C@H](O)[C@@H](C)C(=O)C(C)(C)[C@@H](O)CC(=O)O1 [PATUPILONE] | 20

System: EB-3;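 further: human EB-3 cells, growth inhibition read out via a cell viability assay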
Experiment: cells
Assay type: functional, cell-based, Homo sapiens
Settings: Homo sapiens, EB-3
Description: SANGER: Inhibition of human EB-3 cell growth in a cell viability assay.

Row | SMILES | IC50 [nM]
17 | C/C(=C\c1csc(C)n1)[C@@H]1C[C@@H]2O[C@]2(C)CCC[C@H](C)[C@H](O)[C@@H](C)C(=O)C(C)(C)[C@@H](O)CC(=O)O1 [PATUPILONE] | > 32

System: HT-1376
Experiment: cells
Assay type: functional, cell-based
Settings: Homo sapiens
Description: SANGER: Inhibition of human HT-1376 cell growth in a cell viability assay.

Row | SMILES | IC50 [nM]
18 | C/C(=C\c1csc(C)n1)[C@@H]1C[C@@H]2O[C@]2(C)CCC[C@H](C)[C@H](O)[C@@H](C)C(=O)C(C)(C)[C@@H](O)CC(=O)O1 [PATUPILONE] | 21.2

System: H4
Experiment: cells
Assay type: functional, cell-based
Settings: Homo sapiens
Description: SANGER: Inhibition of human H4 cell growth in a cell viability assay.

Row | SMILES | IC50 [nM]
19 | C/C(=C\c1csc(C)n1)[C@@H]1C[C@@H]2O[C@]2(C)CCC[C@H](C)[C@H](O)[C@@H](C)C(=O)C(C)(C)[C@@H](O)CC(=O)O1 [PATUPILONE] | 0.975

System: KP-N-YN;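 further: growth inhibition of KP-N-YN cells, read out with a cell viability assay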
Experiment: cells
Assay type: functional, cell-based
Settings: Homo sapiens
Description: SANGER: Inhibition of human KP-N-YN cell growth in a cell viability assay.

Row | SMILES | IC50 [nM]
20 | C/C(=C\c1csc(C)n1)[C@@H]1C[C@@H]2O[C@]2(C)CCC[C@H](C)[C@H](O)[C@@H](C)C(=O)C(C)(C)[C@@H](O)CC(=O)O1 [PATUPILONE] | > 32

System: BHY;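 further: cell growth inhibition read out by a viability assay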
Experiment: cells
Assay type: functional, cell-based
Settings: Homo sapiens
Description: SANGER: Inhibition of human BHY cell growth in a cell viability assay.

Row | SMILES | IC50 [nM]
21 | C/C(=C\c1csc(C)n1)[C@@H]1C[C@@H]2O[C@]2(C)CCC[C@H](C)[C@H](O)[C@@H](C)C(=O)C(C)(C)[C@@H](O)CC(=O)O1 [PATUPILONE] | 0.195

System: LB647-SCLC;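 further: cell growth inhibition, read out by a viability assay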
Experiment: cells
Assay type: functional, cell-based, Homo sapiens
Settings: Homo sapiens, LB647-SCLC
Description: SANGER: Inhibition of human LB647-SCLC cell growth in a cell viability assay.

Row | SMILES | IC50 [nM]
22 | C/C(=C\c1csc(C)n1)[C@@H]1C[C@@H]2O[C@]2(C)CCC[C@H](C)[C@H](O)[C@@H](C)C(=O)C(C)(C)[C@@H](O)CC(=O)O1 [PATUPILONE] | 3.1

System: SU-DHL-1
Experiment: SANGER: Inhibition of human SU-DHL-1 cell growth in a cell viability assay.
Assay type: functional, cell-based
Settings: Homo sapiens, SU-DHL-1

Row | SMILES | IC50 [nM]
23 | C/C(=C\c1csc(C)n1)[C@@H]1C[C@@H]2O[C@]2(C)CCC[C@H](C)[C@H](O)[C@@H](C)C(=O)C(C)(C)[C@@H](O)CC(=O)O1 [PATUPILONE] | > 32

System: HuO-3N1;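 further: cell viability readout used to measure how strongly compounds suppress proliferation of human HuO-3N1 cells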
Experiment: cells
Assay type: functional, cell-based
Settings: Homo sapiens
Description: SANGER: Inhibition of human HuO-3N1 cell growth in a cell viability assay.

Row | SMILES | IC50 [nM]
24 | C/C(=C\c1csc(C)n1)[C@@H]1C[C@@H]2O[C@]2(C)CCC[C@H](C)[C@H](O)[C@@H](C)C(=O)C(C)(C)[C@@H](O)CC(=O)O1 [PATUPILONE] | > 32

System: SCC-4;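 further: growth inhibition of human SCC-4 cells, read out as cell viability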
Experiment: cells
Assay type: functional, cell-based
Settings: Homo sapiens
Description: SANGER: Inhibition of human SCC-4 cell growth in a cell viability assay.

Row | SMILES | IC50 [nM]
25 | C/C(=C\c1csc(C)n1)[C@@H]1C[C@@H]2O[C@]2(C)CCC[C@H](C)[C@H](O)[C@@H](C)C(=O)C(C)(C)[C@@H](O)CC(=O)O1 [PATUPILONE] | 0.877

System: NCI-H1436;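 further: growth suppression of human NCI-H1436 cells, determined with a cell viability readout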
Experiment: cells
Assay type: functional, cell-based, Homo sapiens
Settings: Homo sapiens, NCI-H1436
Description: SANGER: Inhibition of human NCI-H1436 cell growth in a cell viability assay.

Row | SMILES | IC50 [nM]
26 | C/C(=C\c1csc(C)n1)[C@@H]1C[C@@H]2O[C@]2(C)CCC[C@H](C)[C@H](O)[C@@H](C)C(=O)C(C)(C)[C@@H](O)CC(=O)O1 [PATUPILONE] | 7.83

System: IMR-5;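 further: growth inhibition of human IMR-5 cells, read out with a cell viability assay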
Experiment: cells
Assay type: functional, cell-based, Homo sapiens
Settings: Homo sapiens, IMR-5; read-out: IC50
Description: SANGER: Inhibition of human IMR-5 cell growth in a cell viability assay.

Row | SMILES | IC50 [nM]
27 | C/C(=C\c1csc(C)n1)[C@@H]1C[C@@H]2O[C@]2(C)CCC[C@H](C)[C@H](O)[C@@H](C)C(=O)C(C)(C)[C@@H](O)CC(=O)O1 [PATUPILONE] | 9.51

System: M059J;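 further: growth inhibition of M059J cells, read out with a cell viability assay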
Experiment: cells
Assay type: functional, cell-based
Settings: Homo sapiens
Description: SANGER: Inhibition of human M059J cell growth in a cell viability assay.

Row | SMILES | IC50 [nM]
28 | C/C(=C\c1csc(C)n1)[C@@H]1C[C@@H]2O[C@]2(C)CCC[C@H](C)[C@H](O)[C@@H](C)C(=O)C(C)(C)[C@@H](O)CC(=O)O1 [PATUPILONE] | 1.34
